Source: patent US11173151B2, “Substituted triazole derivatives and uses thereof” (BAYER AKTIENGESELLSCHAFT, priority 2017, dated 2021)

How the values were obtained:
human V1a receptor = molecular target: T1, human V1a receptor (Homo sapiens, UniProt P37288); assay: Cellular in vitro assay for determining vasopressin receptor activity, V1a receptor cell line (CHO, aequorin luminescence); assay type: cell-based; conditions: for IC50: CHO cell line transfected with human V1a receptor, [Arg]-vasopressin at EC50 concentration, read-out: IC50 hV1a; for ratio IC50 hV2/hV1a: selectivity ratio IC50 hV2 / IC50 hV1a
T1 construct: expressed in transfected cells; host or cells: CHO K1 (ATCC), also stably transfected with a modified aequorin
Method in brief: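 Luminescence from reconstituted aequorin, reporting intracellular calcium release, was measured immediately after adding [Arg]-vasopressin at EC50 concentration to CHO K1 cells pretreated 10 minutes with graded compound concentrations. Inhibition gave IC50 values.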

human V2 receptor = molecular target: T2, human V2 receptor (Homo sapiens, UniProt P30518); assay: Cellular in vitro assay for determining vasopressin receptor activity, V2 receptor cell line (CHO, CRE-luciferase); assay type: cell-based; conditions: CHO cell line transfected with human V2 receptor; [Arg8]-vasopressin at EC50 concentration, 3 hours; read-out: IC50 hV2
T2 construct: expressed in transfected cells; host or cells: CHO K1 (ATCC) expressing firefly luciferase under a CRE-responsive promoter
T2 sequence (P30518 whole entry): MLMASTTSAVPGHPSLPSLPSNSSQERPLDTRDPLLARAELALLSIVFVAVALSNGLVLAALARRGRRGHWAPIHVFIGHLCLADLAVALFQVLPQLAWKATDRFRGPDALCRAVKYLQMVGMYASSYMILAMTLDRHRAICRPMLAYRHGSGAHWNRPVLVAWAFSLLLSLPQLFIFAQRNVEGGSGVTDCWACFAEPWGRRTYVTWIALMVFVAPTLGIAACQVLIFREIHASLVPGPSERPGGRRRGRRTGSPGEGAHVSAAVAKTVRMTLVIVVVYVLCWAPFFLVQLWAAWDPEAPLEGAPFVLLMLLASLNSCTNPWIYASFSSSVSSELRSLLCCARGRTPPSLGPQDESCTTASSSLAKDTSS

T1 sequence (P37288 whole entry): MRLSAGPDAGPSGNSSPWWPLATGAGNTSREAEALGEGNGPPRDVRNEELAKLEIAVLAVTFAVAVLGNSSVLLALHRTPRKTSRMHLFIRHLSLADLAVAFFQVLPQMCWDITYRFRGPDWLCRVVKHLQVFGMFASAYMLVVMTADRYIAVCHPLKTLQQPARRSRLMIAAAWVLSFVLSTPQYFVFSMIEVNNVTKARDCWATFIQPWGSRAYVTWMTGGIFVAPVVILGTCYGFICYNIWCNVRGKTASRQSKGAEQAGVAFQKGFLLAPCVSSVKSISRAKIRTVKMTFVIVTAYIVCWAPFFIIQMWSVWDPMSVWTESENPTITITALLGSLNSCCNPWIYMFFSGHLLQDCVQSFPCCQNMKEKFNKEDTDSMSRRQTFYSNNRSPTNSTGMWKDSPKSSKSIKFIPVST

Structure (SMILES) | IC50 (human V1a receptor) [nM] | ratio IC50 hV2/hV1a (human V1a receptor) | IC50 (human V2 receptor) [nM]
O=C(NC1CCCCC1)c1ccccc1-n1cnc(Cn2nc(-c3ccc(Cl)cc3)n(C[C@H](O)C(F)(F)F)c2=O)n1 [Example 354, 2-[3-({3-(4-Chlorophenyl)-5-oxo-4-[(2S)-3,3,3-trifluoro-2-hydroxypropyl]-4,5-dihydro-1H-1,2,4-triazol-1-yl}methyl)-1H-1,2,4-triazol-1-yl]-N-cyclohexylbenzamide] | 2.25 | 66.7 | 150
O=C(c1ccccc1-n1cnc(Cn2nc(-c3ccc(Cl)cc3)n(C[C@H](O)C(F)(F)F)c2=O)n1)N1CCCCCCC1 [Example 359, 2-({1-[2-(Azocan-1-ylcarbonyl)phenyl]-1H-1,2,4-triazol-3-yl}methyl)-5-(4-chlorophenyl)-4-[(2S)-3,3,3-trifluoro-2-hydroxypropyl]-2,4-dihydro-3H-1,2,4-triazol-3-one] | 6.5 | 138.5 | 900
O=C(NCc1ccccc1F)c1ccccc1-n1cnc(Cn2nc(-c3ccc(Cl)cc3)n(C[C@H](O)C(F)(F)F)c2=O)n1 [Example 363, 2-[3-({3-(4-Chlorophenyl)-5-oxo-4-[(2S)-3,3,3-trifluoro-2-hydroxypropyl]-4,5-dihydro-1H-1,2,4-triazol-1-yl}methyl)-1H-1,2,4-triazol-1-yl]-N-(2-fluorobenzyl)benzamide] | 5.5 | 62.7 | 345
O=C(NCC(F)(F)F)c1cccc(Cl)c1-n1cnc(Cn2nc(-c3ccc(Cl)cc3)n(C[C@H](O)C(F)(F)F)c2=O)n1 [Example 365, 3-Chloro-2-[3-({3-(4-chlorophenyl)-5-oxo-4-[(2S)-3,3,3-trifluoro-2-hydroxypropyl]-4,5-dihydro-1H-1,2,4-triazol-1-yl}methyl)-1H-1,2,4-triazol-1-yl]-N-(2,2,2-trifluoroethyl)benzamide] | 30 | 30.7 | 920
O=C(NCC(F)(F)F)c1cccc(Cl)c1-n1cnc(Cn2nc(-c3ccc(Cl)cc3)n(C[C@@H](O)C(F)(F)F)c2=O)n1 [Example 366, 3-Chloro-2-[3-({3-(4-chlorophenyl)-5-oxo-4-[(2R)-3,3,3-trifluoro-2-hydroxypropyl]-4,5-dihydro-1H-1,2,4-triazol-1-yl}methyl)-1H-1,2,4-triazol-1-yl]-N-(2,2,2-trifluoroethyl)benzamide] | 195 | 19.0 | 3700
O=C(NC1CC1)c1cccc(Cl)c1-n1cnc(Cn2nc(-c3ccc(Cl)cc3)n(C[C@H](O)C(F)(F)F)c2=O)n1 [Example 369, 3-Chloro-2-[3-({3-(4-chlorophenyl)-5-oxo-4-[(2S)-3,3,3-trifluoro-2-hydroxypropyl]-4,5-dihydro-1H-1,2,4-triazol-1-yl}methyl)-1H-1,2,4-triazol-1-yl]-N-cyclopropylbenzamide] | 2.8 | 167.9 | 470
O=C(NCC1CC1)c1cccc(Cl)c1-n1cnc(Cn2nc(-c3ccc(Cl)cc3)n(C[C@H](O)C(F)(F)F)c2=O)n1 [Example 370, 3-Chloro-2-[3-({3-(4-chlorophenyl)-5-oxo-4-[(2S)-3,3,3-trifluoro-2-hydroxypropyl]-4,5-dihydro-1H-1,2,4-triazol-1-yl}methyl)-1H-1,2,4-triazol-1-yl]-N-(cyclopropylmethyl)benzamide] | 33 | 12.7 | 420
NC(=O)[C@@H]1CC(F)(F)CN1C(=O)c1cccc(Cl)c1-n1cnc(Cn2nc(-c3ccc(Cl)cc3)n(C[C@H](O)C(F)(F)F)c2=O)n1 [Example 372, 1-{3-Chloro-2-[3-({3-(4-chlorophenyl)-5-oxo-4-[(2S)-3,3,3-trifluoro-2-hydroxypropyl]-4,5-dihydro-1H-1,2,4-triazol-1-yl}methyl)-1H-1,2,4-triazol-1-yl]benzoyl}-4,4-difluoro-L-prolinamide] | 52.5 | 64.8 | 3400
O=C(NC1CC1F)c1cccc(Cl)c1-n1cnc(Cn2nc(-c3ccc(Cl)cc3)n(C[C@H](O)C(F)(F)F)c2=O)n1 (stereo partly drawn) [Example 373, 3-Chloro-2-[3-({3-(4-chlorophenyl)-5-oxo-4-[(2S)-3,3,3-trifluoro-2-hydroxypropyl]-4,5-dihydro-1H-1,2,4-triazol-1-yl}methyl)-1H-1,2,4-triazol-1-yl]-N-[2-fluorocyclopropyl]benzamide] | 4.75 | 216.8 | 1030
O=C(c1cccc(Cl)c1-n1cnc(Cn2nc(-c3ccc(Cl)cc3)n(C[C@H](O)C(F)(F)F)c2=O)n1)N1CCC(F)(F)C1 [Example 374, 2-[(1-{2-Chloro-6-[(3,3-difluoropyrrolidin-1-yl)carbonyl]phenyl}-1H-1,2,4-triazol-3-yl)methyl]-5-(4-chlorophenyl)-4-[(2S)-3,3,3-trifluoro-2-hydroxypropyl]-2,4-dihydro-3H-1,2,4-triazol-3-one] | 47.5 | 30.5 | 1450
CC1(C)CN(C(=O)c2cccc(Cl)c2-n2cnc(Cn3nc(-c4ccc(Cl)cc4)n(C[C@H](O)C(F)(F)F)c3=O)n2)CCO1 [Example 375, 2-[(1-{2-Chloro-6-[(2,2-dimethylmorpholin-4-yl)carbonyl]phenyl}-1H-1,2,4-triazol-3-yl)methyl]-5-(4-chlorophenyl)-4-[(2S)-3,3,3-trifluoro-2-hydroxypropyl]-2,4-dihydro-3H-1,2,4-triazol-3-one] | 710 | 29.6 | 21000

More lines, now with the values ahead:

IC50 (human V1a receptor) [nM] | ratio IC50 hV2/hV1a (human V1a receptor) | IC50 (human V2 receptor) [nM] | Structure (SMILES)
0.84 | 383.2 | 320 | CC1CCCCN1C(=O)c1ccccc1-n1cnc(Cn2nc(-c3ccc(Cl)cc3)n(C[C@H](O)C(F)(F)F)c2=O)n1 (stereo partly drawn) [Example 352, 5-(4-Chlorophenyl)-2-{[1-(2-{[2-methylpiperidin-1-yl]carbonyl}phenyl)-1H-1,2,4-triazol-3-yl]methyl}-4-[(2S)-3,3,3-trifluoro-2-hydroxypropyl]-2,4-dihydro-3H-1,2,4-triazol-3-one]
0.94 | 299.5 | 280 | O=C(c1ccccc1-n1cnc(Cn2nc(-c3ccc(Cl)cc3)n(C[C@H](O)C(F)(F)F)c2=O)n1)N1CC=CCC1 [Example 353, 5-(4-Chlorophenyl)-2-({1-[2-(3,6-dihydropyridin-1(2H)-ylcarbonyl)phenyl]-1H-1,2,4-triazol-3-yl}methyl)-4-[(2S)-3,3,3-trifluoro-2-hydroxypropyl]-2,4-dihydro-3H-1,2,4-triazol-3-one]
2.45 | 771.4 | 1890 | CC(C)CN(C)C(=O)c1ccccc1-n1cnc(Cn2nc(-c3ccc(Cl)cc3)n(C[C@H](O)C(F)(F)F)c2=O)n1 [Example 356, 2-[3-({3-(4-Chlorophenyl)-5-oxo-4-[(2S)-3,3,3-trifluoro-2-hydroxypropyl]-4,5-dihydro-1H-1,2,4-triazol-1-yl}methyl)-1H-1,2,4-triazol-1-yl]-N-methyl-N-(2-methylpropyl)benzamide]
33 | 74.2 | 2450 | CN1CCN(C(=O)c2ccccc2-n2cnc(Cn3nc(-c4ccc(Cl)cc4)n(C[C@H](O)C(F)(F)F)c3=O)n2)CC1 [Example 357, 5-(4-Chlorophenyl)-2-[(1-{2-[(4-methylpiperazin-1-yl)carbonyl]phenyl}-1H-1,2,4-triazol-3-yl)methyl]-4-[(2S)-3,3,3-trifluoro-2-hydroxypropyl]-2,4-dihydro-3H-1,2,4-triazol-3-one]
18 | 152.8 | 2750 | CCN1CCN(C(=O)c2ccccc2-n2cnc(Cn3nc(-c4ccc(Cl)cc4)n(C[C@H](O)C(F)(F)F)c3=O)n2)CC1 [Example 358, 5-(4-Chlorophenyl)-2-[(1-{2-[(4-ethylpiperazin-1-yl)carbonyl]phenyl}-1H-1,2,4-triazol-3-yl)methyl]-4-[(2S)-3,3,3-trifluoro-2-hydroxypropyl]-2,4-dihydro-3H-1,2,4-triazol-3-one]
0.74 | 20.1 | 14.9 | O=C(Nc1ccccc1)c1ccccc1-n1cnc(Cn2nc(-c3ccc(Cl)cc3)n(C[C@H](O)C(F)(F)F)c2=O)n1 [Example 360, 2-[3-({3-(4-Chlorophenyl)-5-oxo-4-[(2S)-3,3,3-trifluoro-2-hydroxypropyl]-4,5-dihydro-1H-1,2,4-triazol-1-yl}methyl)-1H-1,2,4-triazol-1-yl]-N-phenylbenzamide]
2.55 | 38.2 | 97.5 | Cc1cccc(NC(=O)c2ccccc2-n2cnc(Cn3nc(-c4ccc(Cl)cc4)n(C[C@H](O)C(F)(F)F)c3=O)n2)c1 [Example 361, 2-[3-({3-(4-Chlorophenyl)-5-oxo-4-[(2S)-3,3,3-trifluoro-2-hydroxypropyl]-4,5-dihydro-1H-1,2,4-triazol-1-yl}methyl)-1H-1,2,4-triazol-1-yl]-N-(3-methylphenyl)benzamide]
4.85 | 515.5 | 2500 | CN(CCC#N)C(=O)c1ccccc1-n1cnc(Cn2nc(-c3ccc(Cl)cc3)n(C[C@H](O)C(F)(F)F)c2=O)n1 [Example 362, 2-[3-({3-(4-Chlorophenyl)-5-oxo-4-[(2S)-3,3,3-trifluoro-2-hydroxypropyl]-4,5-dihydro-1H-1,2,4-triazol-1-yl}methyl)-1H-1,2,4-triazol-1-yl]-N-(2-cyanoethyl)-N-methylbenzamide]
